We go through three compounds from patent publication US10385019B2, “Inhibitors of EGFR and methods of use thereof” (Dana-Farber Cancer Institute, Inc., priority 2015, dated 2019).

One test concerns the target T1, L858R mutant EGFR (Homo sapiens, UniProt P00533, L858R).
T1 construct: Constructs spanning residues 696-1022 of the human EGFR; GST (cleaved yes); made in house; host or cells: Sf9 insect cells
Kind of test: HTRF-based EGFR biochemical assay. The note with it: relative to L858R/T790M and T790M mutants. As for the experimental part:
EGFR biochemical assays are carried out using a homogeneous time-resolved fluorescence (HTRF) assay. The reaction mixtures contain biotin-Lck-peptide substrate, wild type, or mutant EGFR enzyme in reaction buffer. Enzyme concentrations are adjusted to accommodate varying kinase activity and ATP concentrations. Compounds of the present disclosure are diluted into the assay mixture and IC50 values are determined using 12-point inhibition curves.
Constructs spanning residues 696-1022 of the human EGFR (including wild type and L858R, L858R/T790M, T790M, and T790M/V948R mutant sequences) were prepared in a GST-fusion format using the pTriEX system (Novagen) for expression in Sf9 insect cells essentially as described. […]
EGFR biochemical assays were carried out using a homogeneous time-resolved fluorescence (HTRF) assay as described previously. […] Five μL per well of the detection reagent containing 2.5 ng PT66K (Cis-bio) and 0.05 μg SAXL (Prozyme) were added, and the plates were then incubated at room temperature for 1 hour and read with an EnVision plate reader.

Test [1] concerns the target EGFR T790M/L858R Ba/F3 cell line (Homo sapiens, UniProt P00533, T790M/L858R, cells depend on it). Nature of the test: Ba/F3 cell proliferation model. Type of test: cell-based, murine. As to conditions: for Activity (% inhibition): combined with cetuximab (% cetuximab, 1.0 μM drug concentration with 1.0 μg/mL cetuximab). The method in brief: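 Murine Ba/F3 cells made IL-3-independent by retroviral EGFR L858R/T790M, selected in puromycin (2 μg/ml) and kept in RPMI 1640 with 10% FBS. Cells were exposed to serially diluted compound for 72 h, with growth read by MTS assay in six wells per point and ≥3 repeats. Sigmoidal dose-response non-linear regression gave the values.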

The test system of test [2] is EGFR Parental Ba/F3 cell line. Nature of the test: Ba/F3 cell proliferation model. Type of test: cell-based, murine. As to conditions: Mus musculus, BaF3; compound alone. An excerpt: (§1) The selectivity between wild-type EGFR and EGFR containing one or more mutations as described herein can also be measured using cellular proliferation assays where cell proliferation is dependent on kinase activity. For example, murine Ba/F3 cells transfected with a suitable version of wild-type EGFR (such as VIII; containing a WT EGFR kinase domain), or Ba/F3 cells transfected with L858R/T790M, Del/T790M/L718Q, L858R/T790M/L718Q, L858R/T790M/C797S, Del/T790M/C797S, L858R/T790M/I941R, or Exon 19 deletion/T790M can be used.
(§2) Cell lines are plated in media. The compounds of the present disclosure are then serially diluted and transferred to the cells. Cell viability is measured via a luminescent readout. Data is analyzed by non-linear regression curve-fitting.
(§3) The EGFR mutant L858R, Del E746_A750, L858R/T790M, DelE746_A750/T790M, L858R/T790M/C797S and Del/T790M/C797S Ba/F3 cells have been previously described (Zhou, W., Ercan, D., Chen, L., Yun, C. H., Li, D., Capelletti, M., Cortot, A. B., Chirieac, L., Iacob, R. E., Padera, R., et al. “Novel mutant-selective EGFR kinase inhibitors against EGFR T790M,” Nature 462, (2009), 1070-1074). All cell lines were maintained in RPMI 1640 (Cellgro; Mediatech Inc., Herndon, Calif.) supplemented with 10% FBS 100 units/mL penicillin, 100 units/mL streptomycin, and 2 mM glutamine. L858R cells were maintained in ACL-4 media (Invitrogen, Carlsbad, Calif.) supplemented with 5% FBS, 100 units/mL penicillin, 100 units/mL streptomycin, and 2 mM glutamine. The EGFR I941R mutation was introduced via site directed mutagenesis using the Quick Change Site-Directed Mutagenesis kit (Stratagene; La Jolla, Calif.) according to the manufacturer's instructions. All constructs were confirmed by DNA sequencing. The constructs were shuttled into the retroviral vector JP 1540 using the BD Creator™ System (BD Biosciences). Ba/F3 cells were infected with retrovirus and according to standard protocols, as described previously (Zhou et al, Nature 2009). Stable clones were obtained by selection in puromycin (2 μg/ml).
(§4) Growth and inhibition of growth was assessed by MTS assay and was performed according to previously established methods (Zhou et al., Nature 2009). The MTS assay is a colorimetric method for determining the number of viable cells that is based on the bioreduction of MTS by cells to a formazan product that is soluble in cell culture medium and can be detected spectrophotometrically. Ba/F3 cells of different EGFR genotypes were exposed to treatment for 72 hours and the number of cells used per experiment determined empirically and has been previously established (Zhou et al., Nature 2009). All experimental points were set up in six wells and all experiments were repeated at least three times. […] The curves were fitted using a non-linear regression model with a sigmoidal dose response.

Test [3] has as its target Del/T790M Ba/F3 cell line (Homo sapiens, UniProt P00533, DEL746-750/T790M, cells depend on it). Kind of test: Ba/F3 cell proliferation model. The test is classed as cell-based, murine.
Source text: as §1, §2, §3, §4

Setting [4] is: compound alone, read-out: L858R/T790M IC50.
The mark [5] stands for this setting: read-out: L858R/T790M Cetuximab IC50, in combination with Cetuximab.
The mark [6] stands for this setting: compound alone, read-out: Del/T790M IC50.
Where [7] appears, read: read-out: Del/T790M Cetuximab IC50, in combination with Cetuximab.

Molecules are shown by their SMILES. Read-outs that look alike come from different tables or passages of the source. A value given as a limit tells only on which side of the number the result lay.

Chain of Del/T790M Ba/F3 cell line (P00533 with tags, fused parts or gaps DEL746-750/T790M): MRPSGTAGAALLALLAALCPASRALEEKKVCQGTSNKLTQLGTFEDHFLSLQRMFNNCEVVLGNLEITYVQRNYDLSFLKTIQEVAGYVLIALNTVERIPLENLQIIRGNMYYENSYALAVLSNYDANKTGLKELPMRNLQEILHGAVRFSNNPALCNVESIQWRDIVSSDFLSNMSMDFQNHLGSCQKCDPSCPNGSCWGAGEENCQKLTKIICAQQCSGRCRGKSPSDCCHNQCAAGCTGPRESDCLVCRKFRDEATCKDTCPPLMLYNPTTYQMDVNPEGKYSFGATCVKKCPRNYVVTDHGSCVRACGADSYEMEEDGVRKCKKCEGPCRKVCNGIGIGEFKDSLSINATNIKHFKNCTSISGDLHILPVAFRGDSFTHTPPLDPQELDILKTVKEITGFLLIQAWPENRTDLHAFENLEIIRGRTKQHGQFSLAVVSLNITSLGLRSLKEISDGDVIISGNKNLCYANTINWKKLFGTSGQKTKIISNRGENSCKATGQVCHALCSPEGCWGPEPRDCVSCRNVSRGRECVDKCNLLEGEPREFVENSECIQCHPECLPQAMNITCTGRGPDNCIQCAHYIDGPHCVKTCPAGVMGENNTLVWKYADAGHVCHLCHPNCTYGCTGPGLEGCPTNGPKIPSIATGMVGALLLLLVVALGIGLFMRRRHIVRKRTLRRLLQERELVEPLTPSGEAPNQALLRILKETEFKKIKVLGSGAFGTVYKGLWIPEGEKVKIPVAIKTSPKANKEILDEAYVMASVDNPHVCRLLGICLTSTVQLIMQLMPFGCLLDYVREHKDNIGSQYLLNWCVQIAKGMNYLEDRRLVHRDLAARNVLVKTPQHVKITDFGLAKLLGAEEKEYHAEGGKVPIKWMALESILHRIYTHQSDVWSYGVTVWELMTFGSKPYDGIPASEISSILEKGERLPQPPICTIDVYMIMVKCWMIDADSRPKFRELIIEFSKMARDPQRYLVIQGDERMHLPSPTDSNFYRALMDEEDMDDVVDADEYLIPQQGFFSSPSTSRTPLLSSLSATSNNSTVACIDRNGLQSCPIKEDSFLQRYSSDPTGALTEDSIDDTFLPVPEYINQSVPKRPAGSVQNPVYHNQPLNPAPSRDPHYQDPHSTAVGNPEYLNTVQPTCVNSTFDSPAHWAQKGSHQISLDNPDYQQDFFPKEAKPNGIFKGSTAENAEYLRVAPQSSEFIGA
Chain of EGFR T790M/L858R Ba/F3 cell line (P00533 whole entry T790M/L858R): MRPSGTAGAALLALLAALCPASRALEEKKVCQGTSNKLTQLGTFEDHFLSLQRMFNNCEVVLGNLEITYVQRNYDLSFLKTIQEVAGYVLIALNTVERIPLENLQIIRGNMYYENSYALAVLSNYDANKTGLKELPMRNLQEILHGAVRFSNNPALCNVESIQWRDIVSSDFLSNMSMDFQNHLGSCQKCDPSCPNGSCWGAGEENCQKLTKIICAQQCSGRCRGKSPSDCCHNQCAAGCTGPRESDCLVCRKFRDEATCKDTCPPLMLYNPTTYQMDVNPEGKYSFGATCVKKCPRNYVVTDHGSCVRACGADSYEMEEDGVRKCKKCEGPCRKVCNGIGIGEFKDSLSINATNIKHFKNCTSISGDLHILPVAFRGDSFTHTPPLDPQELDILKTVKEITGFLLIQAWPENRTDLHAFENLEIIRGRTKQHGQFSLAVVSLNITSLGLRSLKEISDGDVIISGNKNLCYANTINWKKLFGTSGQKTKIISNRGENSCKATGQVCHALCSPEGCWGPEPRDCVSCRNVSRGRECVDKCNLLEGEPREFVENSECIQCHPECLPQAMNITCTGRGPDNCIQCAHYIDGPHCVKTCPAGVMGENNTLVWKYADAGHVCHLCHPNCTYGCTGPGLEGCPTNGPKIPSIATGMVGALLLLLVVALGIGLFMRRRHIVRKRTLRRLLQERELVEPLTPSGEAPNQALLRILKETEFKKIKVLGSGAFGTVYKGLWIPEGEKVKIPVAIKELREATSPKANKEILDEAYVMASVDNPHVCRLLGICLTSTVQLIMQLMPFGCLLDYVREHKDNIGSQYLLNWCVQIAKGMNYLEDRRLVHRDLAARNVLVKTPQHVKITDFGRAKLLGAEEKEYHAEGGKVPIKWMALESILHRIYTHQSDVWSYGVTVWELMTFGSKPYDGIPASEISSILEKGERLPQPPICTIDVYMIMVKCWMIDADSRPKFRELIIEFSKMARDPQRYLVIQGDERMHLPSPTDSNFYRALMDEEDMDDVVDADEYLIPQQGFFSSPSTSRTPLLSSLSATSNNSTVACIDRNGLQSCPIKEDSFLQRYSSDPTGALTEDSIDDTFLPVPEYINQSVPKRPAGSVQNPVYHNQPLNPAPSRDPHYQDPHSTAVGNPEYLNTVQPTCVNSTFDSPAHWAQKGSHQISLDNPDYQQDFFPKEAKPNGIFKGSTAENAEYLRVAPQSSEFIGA
T1 sequence (P00533 696-1022 L858R): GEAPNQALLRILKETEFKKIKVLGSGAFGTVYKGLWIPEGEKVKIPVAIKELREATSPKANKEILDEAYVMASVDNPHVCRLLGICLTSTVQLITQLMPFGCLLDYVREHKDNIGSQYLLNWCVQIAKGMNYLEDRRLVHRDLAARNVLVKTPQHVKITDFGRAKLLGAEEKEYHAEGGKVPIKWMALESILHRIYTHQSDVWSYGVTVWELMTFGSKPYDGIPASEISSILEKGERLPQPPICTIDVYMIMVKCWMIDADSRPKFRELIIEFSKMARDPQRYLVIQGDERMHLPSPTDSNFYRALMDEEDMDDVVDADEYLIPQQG

As to `O=C(Nc1nccs1)C(c1ccccc1)N1Cc2ccccc2C1=O` (stereo not shown) [Compound A1], the “decreased potency against L858R mutant EGFR” value on L858R mutant EGFR was “approximately 2 fold”.
In the case of `O=C(Nc1nccs1)[C@@H](c1ccccc1)N1Cc2ccc(-c3ccc(CN4CCNCC4)cc3)cc2C1=O` [Compound I-121, (R)-2-(1-oxo-6-(4-(piperazin-1-ylmethyl)phenyl)isoindolin-2-yl)-2-phenyl-N-(thiazol-2-yl)acetamide], in test [1], the “Activity (% inhibition)” value is listed as “D (a % inhibition of between about 0% to about 25%)”. Further, the GI50 in test [1] (setting [4]) is 1000 to 10000 nM; in test [1] (setting [5]) it was < 500 nM; in test [3] (setting [6]), 1000 to 10000 nM; in test [3] (setting [7]), 1000 to 10000 nM. In addition, the IC50 in test [2] lay in the range of 1000 to 10000 nM.
For the compound `CN(C)CCNC(=O)c1ccc(-c2ccc3c(c2)C(=O)N([C@@H](C(=O)Nc2nccs2)c2ccccc2)C3)cc1` [Compound I-81, (R)-N-(2-(dimethylamino)ethyl)-4-(3-oxo-2-(2-oxo-1-phenyl-2-(thiazol-2-ylamino)ethyl)isoindolin-5-yl)benzamide], the “Activity (% inhibition)” value in test [1] is listed as “D (a % inhibition of between about 0% to about 25%)”. For the same compound, the GI50 was 1000 to 10000 nM in test [1] (setting [4]), < 500 nM in test [1] (setting [5]), 1000 to 10000 nM in test [3] (setting [6]) and 1000 to 10000 nM in test [3] (setting [7]). For the same compound, the half-inhibitory concentration (IC50) in test [2] lay in the range of 1000 to 10000 nM.
